For eight cell lines, relative viability results are on record in the supplement of paper PMC10307832.

What all share (test): relative viability (nuclei count vs DMSO), 5 days (fraction); higher = more cells survive
Compound in the assay “R406 + Dasatinib”: COc1cc(Nc2ncc(F)c(Nc3ccc4c(n3)NC(=O)C(C)(C)O4)n2)cc(OC)c1OC [R406] + Cc1nc(Nc2ncc(C(=O)Nc3c(C)cccc3Cl)s2)cc(N2CCN(CCO)CC2)n1 [Dasatinib] (partner 0.075 µM)
The method, boiled down:
(§1)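 Relative viability divides the nuclei count in treated wells by that in vehicle wells. Lung cancer cell lines were seeded in 1536-well plates, dosed by pin tool the next day, and fixed and stained after 5 days in one step with final 0.05% Triton X-100, 1% formaldehyde and 1 ug/ml Hoechst. Dosing was a single drug or a fixed anchor-drug dose plus five library-drug doses (not always all listed) in √10 steps, and values are medians of duplicate plates imaged at 4×.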

Compound in the assay “Daporinad + Bortezomib”: O=C(/C=C/c1cccnc1)NCCCCC1CCN(C(=O)c2ccccc2)CC1 [Daporinad] + CC(C)C[C@H](NC(=O)[C@H](Cc1ccccc1)NC(=O)c1cnccn1)B(O)O [Bortezomib] (partner 0.002 µM)
The method, boiled down: as §1

Compound in the assay “Daporinad + Tozasertib”: O=C(/C=C/c1cccnc1)NCCCCC1CCN(C(=O)c2ccccc2)CC1 [Daporinad] + Cc1cc(Nc2cc(N3CCN(C)CC3)nc(Sc3ccc(NC(=O)C4CC4)cc3)n2)n[nH]1 [Tozasertib] (partner 0.1 µM)
A digest of the protocol:
as §1

Compound in the assay “Daporinad + Pemetrexed”: O=C(/C=C/c1cccnc1)NCCCCC1CCN(C(=O)c2ccccc2)CC1 [Daporinad] + Nc1nc2[nH]cc(CCc3ccc(C(=O)N[C@@H](CCC(=O)O)C(=O)O)cc3)c2c(=O)[nH]1 [Pemetrexed] (partner 0.2 µM)
A digest of the protocol:
as §1

As to LCLC-97TM1, the relative viability in the assay with R406 + Dasatinib (first compound 0.08 µM) is 0.83; with R406 + Dasatinib (first compound 0.253 µM) it was 0.863; in the assay with R406 + Dasatinib (first compound 0.8 µM), 0.793; in the assay with R406 + Dasatinib (first compound 2.53 µM) it was 0.722; in the assay with R406 + Dasatinib (first compound 8 µM), 0.602; with Daporinad + Bortezomib (first compound 0.0005 µM), 0.302. Besides, the relative viability in the assay with Daporinad + Bortezomib (first compound 0.001581 µM) is 0.604; with Daporinad + Bortezomib (first compound 0.005 µM), 0.657; with Daporinad + Bortezomib (first compound 0.01581 µM), 0.533; with Daporinad + Tozasertib (first compound 0.0005 µM), 0.194; with Daporinad + Tozasertib (first compound 0.001581 µM), 0.432; in the assay with Daporinad + Tozasertib (first compound 0.005 µM), 0.181. Further, the relative viability stood at 0.253 in the assay with Daporinad + Tozasertib (first compound 0.01581 µM); 0.17 with Daporinad + Pemetrexed (first compound 0.0005 µM); 0.2 with Daporinad + Pemetrexed (first compound 0.001581 µM); 0.165 in the assay with Daporinad + Pemetrexed (first compound 0.005 µM); 0.185 with Daporinad + Pemetrexed (first compound 0.01581 µM).
For LCLC-103H, the relative viability came to 0.491 in the assay with R406 + Dasatinib (first compound 0.08 µM); 0.538 with R406 + Dasatinib (first compound 0.253 µM); 0.539 with R406 + Dasatinib (first compound 0.8 µM); 0.393 in the assay with R406 + Dasatinib (first compound 2.53 µM); 0.26 with R406 + Dasatinib (first compound 8 µM); 1.11 with Daporinad + Bortezomib (first compound 0.0005 µM). Moreover, the relative viability with Daporinad + Bortezomib (first compound 0.001581 µM) is 1; in the assay with Daporinad + Bortezomib (first compound 0.005 µM), 1.07; with Daporinad + Bortezomib (first compound 0.01581 µM) it was 1.04; with Daporinad + Tozasertib (first compound 0.0005 µM), 0.548; with Daporinad + Tozasertib (first compound 0.001581 µM), 0.5; with Daporinad + Tozasertib (first compound 0.005 µM), 0.514. Moreover, the relative viability came to 0.525 with Daporinad + Tozasertib (first compound 0.01581 µM); 0.497 with Daporinad + Pemetrexed (first compound 0.0005 µM); 0.453 with Daporinad + Pemetrexed (first compound 0.001581 µM); 0.508 with Daporinad + Pemetrexed (first compound 0.005 µM); 0.471 with Daporinad + Pemetrexed (first compound 0.01581 µM).
LOU-NH91: the relative viability in the assay with R406 + Dasatinib (first compound 0.08 µM) stood at 0.593; in the assay with R406 + Dasatinib (first compound 0.253 µM), 0.617; in the assay with R406 + Dasatinib (first compound 0.8 µM), 0.545; with R406 + Dasatinib (first compound 2.53 µM) it was 0.354; with R406 + Dasatinib (first compound 8 µM), 0.334; in the assay with Daporinad + Bortezomib (first compound 0.0005 µM), 0.532. Also, the relative viability stood at 0.465 with Daporinad + Bortezomib (first compound 0.001581 µM); 0.559 in the assay with Daporinad + Bortezomib (first compound 0.005 µM); 0.559 with Daporinad + Bortezomib (first compound 0.01581 µM); 0.754 with Daporinad + Tozasertib (first compound 0.0005 µM); 0.699 with Daporinad + Tozasertib (first compound 0.001581 µM); 0.792 in the assay with Daporinad + Tozasertib (first compound 0.005 µM). Moreover, the relative viability with Daporinad + Tozasertib (first compound 0.01581 µM) came to 0.906; with Daporinad + Pemetrexed (first compound 0.0005 µM), 0.383; with Daporinad + Pemetrexed (first compound 0.001581 µM), 0.359; with Daporinad + Pemetrexed (first compound 0.005 µM), 0.509; with Daporinad + Pemetrexed (first compound 0.01581 µM), 0.482.
Turning to LU99A, the relative viability with R406 + Dasatinib (first compound 0.08 µM) was 0.553; in the assay with R406 + Dasatinib (first compound 0.253 µM), 0.607; in the assay with R406 + Dasatinib (first compound 0.8 µM) it was 0.548; with R406 + Dasatinib (first compound 2.53 µM), 0.377; in the assay with R406 + Dasatinib (first compound 8 µM) it was 0.271; with Daporinad + Bortezomib (first compound 0.0005 µM), 1.11. The relative viability was found to be 1.17 with Daporinad + Bortezomib (first compound 0.001581 µM); 1.36 with Daporinad + Bortezomib (first compound 0.005 µM); 1.44 with Daporinad + Bortezomib (first compound 0.01581 µM); 0.26 in the assay with Daporinad + Tozasertib (first compound 0.0005 µM); 0.254 with Daporinad + Tozasertib (first compound 0.001581 µM); 0.29 with Daporinad + Tozasertib (first compound 0.005 µM). The relative viability was 0.249 with Daporinad + Tozasertib (first compound 0.01581 µM); 0.165 in the assay with Daporinad + Pemetrexed (first compound 0.0005 µM); 0.142 with Daporinad + Pemetrexed (first compound 0.001581 µM); 0.18 with Daporinad + Pemetrexed (first compound 0.005 µM); 0.156 with Daporinad + Pemetrexed (first compound 0.01581 µM).
For LXF-289, the relative viability in the assay with R406 + Dasatinib (first compound 0.08 µM) was determined as 0.229; in the assay with R406 + Dasatinib (first compound 0.253 µM), 0.241; with R406 + Dasatinib (first compound 0.8 µM) it was 0.234; with R406 + Dasatinib (first compound 2.53 µM), 0.135; with R406 + Dasatinib (first compound 8 µM), 0.0357; with Daporinad + Bortezomib (first compound 0.0005 µM), 0.965. The relative viability with Daporinad + Bortezomib (first compound 0.001581 µM) was 1.08; in the assay with Daporinad + Bortezomib (first compound 0.005 µM), 1.05; with Daporinad + Bortezomib (first compound 0.01581 µM), 1.07; in the assay with Daporinad + Tozasertib (first compound 0.0005 µM), 0.23; in the assay with Daporinad + Tozasertib (first compound 0.001581 µM) it was 0.188; with Daporinad + Tozasertib (first compound 0.005 µM) it was 0.176. For the same cell line, the relative viability was 0.148 with Daporinad + Tozasertib (first compound 0.01581 µM); 0.837 with Daporinad + Pemetrexed (first compound 0.0005 µM); 0.978 with Daporinad + Pemetrexed (first compound 0.001581 µM); 0.937 with Daporinad + Pemetrexed (first compound 0.005 µM); 0.889 with Daporinad + Pemetrexed (first compound 0.01581 µM).
As to NCI-H23, the relative viability came to 0.7 in the assay with R406 + Dasatinib (first compound 0.08 µM); 0.878 with R406 + Dasatinib (first compound 0.253 µM); 0.902 with R406 + Dasatinib (first compound 0.8 µM); 0.748 with R406 + Dasatinib (first compound 8 µM); 1.18 in the assay with Daporinad + Bortezomib (first compound 0.0005 µM); 0.919 with Daporinad + Bortezomib (first compound 0.001581 µM). Also, the relative viability with Daporinad + Bortezomib (first compound 0.005 µM) worked out at 0.888; with Daporinad + Bortezomib (first compound 0.01581 µM), 0.427; in the assay with Daporinad + Tozasertib (first compound 0.0005 µM), 0.421; with Daporinad + Tozasertib (first compound 0.001581 µM), 0.374; with Daporinad + Tozasertib (first compound 0.005 µM) it was 0.424; with Daporinad + Tozasertib (first compound 0.01581 µM) it was 0.295. The relative viability was determined as 0.797 in the assay with Daporinad + Pemetrexed (first compound 0.0005 µM), 0.562 with Daporinad + Pemetrexed (first compound 0.001581 µM), 0.767 with Daporinad + Pemetrexed (first compound 0.005 µM) and 0.31 with Daporinad + Pemetrexed (first compound 0.01581 µM).
As for NCI-H322M, the relative viability is 0.237 in the assay with R406 + Dasatinib (first compound 0.08 µM); 0.245 in the assay with R406 + Dasatinib (first compound 0.253 µM); 0.26 in the assay with R406 + Dasatinib (first compound 0.8 µM); 0.24 with R406 + Dasatinib (first compound 2.53 µM); 0.208 in the assay with R406 + Dasatinib (first compound 8 µM); 1.24 in the assay with Daporinad + Bortezomib (first compound 0.0005 µM). The relative viability amounted to 1.37 with Daporinad + Bortezomib (first compound 0.001581 µM); 1.04 with Daporinad + Bortezomib (first compound 0.005 µM); 0.625 with Daporinad + Bortezomib (first compound 0.01581 µM); 0.572 with Daporinad + Tozasertib (first compound 0.0005 µM); 0.485 with Daporinad + Tozasertib (first compound 0.001581 µM); 0.396 with Daporinad + Tozasertib (first compound 0.005 µM). In addition, the relative viability in the assay with Daporinad + Tozasertib (first compound 0.01581 µM) was 0.312; with Daporinad + Pemetrexed (first compound 0.0005 µM), 0.638; with Daporinad + Pemetrexed (first compound 0.001581 µM), 0.634; with Daporinad + Pemetrexed (first compound 0.005 µM), 0.635; in the assay with Daporinad + Pemetrexed (first compound 0.01581 µM), 0.46.
Take NCI-H441: the relative viability with R406 + Dasatinib (first compound 0.08 µM) is 0.669; with R406 + Dasatinib (first compound 0.253 µM) it was 0.659; with R406 + Dasatinib (first compound 0.8 µM), 0.851; with R406 + Dasatinib (first compound 2.53 µM), 0.429; in the assay with R406 + Dasatinib (first compound 8 µM), 0.318; in the assay with Daporinad + Bortezomib (first compound 0.001581 µM), 0.476. Further, the relative viability with Daporinad + Bortezomib (first compound 0.005 µM) was 0.486; in the assay with Daporinad + Bortezomib (first compound 0.01581 µM), 0.443; in the assay with Daporinad + Tozasertib (first compound 0.0005 µM), 0.512; in the assay with Daporinad + Tozasertib (first compound 0.001581 µM), 0.646; with Daporinad + Tozasertib (first compound 0.005 µM), 0.718; in the assay with Daporinad + Tozasertib (first compound 0.01581 µM), 0.668. Also, the relative viability with Daporinad + Pemetrexed (first compound 0.0005 µM) amounted to 0.242; in the assay with Daporinad + Pemetrexed (first compound 0.001581 µM), 0.243; in the assay with Daporinad + Pemetrexed (first compound 0.005 µM) it was 0.268; with Daporinad + Pemetrexed (first compound 0.01581 µM), 0.291.
